Data reported in patent publication US20180362580A1, “CRYSTALLINE AND AMORPHOUS FORMS OF CARFILZOMIB” (Mylan Laboratories Limited, priority 2015, published 2018).
Entries after “also recorded” stand apart in the source; their conditions may differ.

Assay: Long term storage stability of the crystalline form, measured by PXRD
Format: physicochemical
Conditions: stored at 2° C. to 8° C. for one year; solid form checked by PXRD
Method: The polymorphs disclosed herein may be characterized by their X-ray powder diffraction (PXRD) patterns. Thus, samples of carfilzomib prepared by processes disclosed herein, including crystalline carfilzomib form M1 and amorphous carfilzomib, were analyzed by PXRD on a BRUKER D-8 DISCOVER powder diffractometer equipped with goniometer of θ/2θ configuration and LYNX EYE detector. The Cu-anode X-ray tube was operated at 40 kV and 30 mA. The experiments were conducted over the 2θ range of 2.0°-50.0°, 0.030° step size, and 0.4 seconds step time.
In some samples, individual impurities were present at levels less than 0.1%.

Structure (SMILES): CC(C)C[C@H](NC(=O)[C@H](CCc1ccccc1)NC(=O)CN1CCOCC1)C(=O)N[C@@H](Cc1ccccc1)C(=O)N[C@@H](CC(C)C)C(=O)[C@@]1(C)CO1 [crystalline carfilzomib form M1, (2S)-N-((S)-1-((S)-4-methyl-1-((R)-2-methyloxiran-2-yl)-1-oxopentan-2-ylcarbamoyl)-2-phenylethyl)-2-((S)-2-(2-morpholinoacetamido)-4-phenylbutanamido)-4-methylpentanamide]
- stability (measured by PXRD): exhibited stability; also recorded: stable
